Activity calls are given as the source filed them. For most assays here, no stated cut-off is given here; in the data, actives have a measured EC50 and inactives only a lower limit.
Assays:
[1] = biological target: T1, Heat shock factor protein 1 (Mus musculus, UniProt P38532); assay: decrease of HSF1-responsive luciferase luminescence – cell-based, NIH3T3, dose retest, confirmation (AID 2382); type: functional;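 further: NIH3T3 fibroblasts with HSF1-driven luciferase reporter stressed by proteasome inhibitor MG132; luminescence from HSF1-driven luciferase expression after 8 hours of MG132 stress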
T1 sequence (P38532 whole entry): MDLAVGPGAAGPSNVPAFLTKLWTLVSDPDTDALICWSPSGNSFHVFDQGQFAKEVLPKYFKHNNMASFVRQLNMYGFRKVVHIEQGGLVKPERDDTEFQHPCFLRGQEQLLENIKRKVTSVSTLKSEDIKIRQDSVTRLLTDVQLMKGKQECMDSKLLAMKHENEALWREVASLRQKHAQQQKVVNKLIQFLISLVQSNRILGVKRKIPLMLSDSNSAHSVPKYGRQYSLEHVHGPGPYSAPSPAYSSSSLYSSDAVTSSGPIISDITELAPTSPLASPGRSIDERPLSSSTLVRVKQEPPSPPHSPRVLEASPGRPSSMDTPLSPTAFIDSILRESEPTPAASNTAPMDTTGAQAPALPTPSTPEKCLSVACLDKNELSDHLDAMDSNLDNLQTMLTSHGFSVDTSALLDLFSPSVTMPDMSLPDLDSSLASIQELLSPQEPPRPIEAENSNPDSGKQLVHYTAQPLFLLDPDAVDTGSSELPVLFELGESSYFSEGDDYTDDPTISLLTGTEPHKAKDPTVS

[2] = reduction of Shn3 3'UTR-driven luciferase in osteoblasts – cell-based, Clone20 osteoblasts, firefly luciferase, cherry-picked, dose response (AID 624132); type: functional;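 further: firefly luciferase luminescence from reporter carrying the Shn3 3'UTR in osteoblasts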
[3] = non-specific 3'UTR reporter inhibition in Clone20-Shn3RL – cell-based, Renilla luciferase, cherry-picked, counter-screen for Shn3 inhibitor project, dose response (AID 624133); type: functional
[4] = biological target: Luciferin 4-monooxygenase (Photinus pyralis, UniProt P08659); assay: inhibition of purified Photinus pyralis luciferase – biochemical, luminescence, dose response (AID 1891)
[5] = Luminescence Cell-Based Dose Confirmation HTS to Identify Inhibitors of Platelet Dense Granule Release. [Related pubchem assays: 1663 (Primary HTS), 1678 (Summary of Project)]; type: functional
[6] = biological target: T2, Replicative DNA helicase DnaB (Mycobacterium tuberculosis, UniProt P9WMR3); assay: DnaB intein splicing inhibitors, dose response, biochemical, cell-free fluorescence (AID 449749); type: functional
T2 sequence (P9WMR3 whole entry): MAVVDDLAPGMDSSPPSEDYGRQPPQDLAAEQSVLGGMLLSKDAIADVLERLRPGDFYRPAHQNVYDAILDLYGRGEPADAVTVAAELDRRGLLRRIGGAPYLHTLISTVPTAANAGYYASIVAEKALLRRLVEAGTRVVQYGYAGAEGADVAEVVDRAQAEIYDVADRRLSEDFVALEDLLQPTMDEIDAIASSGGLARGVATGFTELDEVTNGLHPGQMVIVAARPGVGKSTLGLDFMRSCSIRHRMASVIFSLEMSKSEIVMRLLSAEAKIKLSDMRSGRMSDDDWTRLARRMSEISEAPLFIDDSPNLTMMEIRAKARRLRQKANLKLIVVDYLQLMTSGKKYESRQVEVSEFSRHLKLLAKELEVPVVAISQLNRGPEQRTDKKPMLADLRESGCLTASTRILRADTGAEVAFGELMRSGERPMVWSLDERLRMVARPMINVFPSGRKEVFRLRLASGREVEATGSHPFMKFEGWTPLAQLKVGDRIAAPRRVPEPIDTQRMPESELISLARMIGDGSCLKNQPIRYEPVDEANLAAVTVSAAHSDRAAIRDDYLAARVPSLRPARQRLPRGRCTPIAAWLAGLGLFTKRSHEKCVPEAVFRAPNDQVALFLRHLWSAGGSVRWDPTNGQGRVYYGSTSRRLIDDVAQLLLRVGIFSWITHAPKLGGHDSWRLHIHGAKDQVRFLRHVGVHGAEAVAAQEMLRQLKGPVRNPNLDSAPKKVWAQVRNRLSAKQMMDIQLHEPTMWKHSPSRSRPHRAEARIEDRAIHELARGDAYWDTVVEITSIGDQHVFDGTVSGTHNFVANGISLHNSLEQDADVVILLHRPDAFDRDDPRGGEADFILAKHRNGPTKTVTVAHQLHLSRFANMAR

[7] = biological target: T3, Protein RecA (Mycobacterium tuberculosis, UniProt P9WHJ3); assay: Fluorescence Cell-Free Homogeneous Dose Retest to Identify Inhibitors of RecA-Intein Splicing Activity. [Related pubchem assays (depositor defined):AID2097, AID2223, AID489010, AID492950]; type: functional
T3 sequence (P9WHJ3 whole entry): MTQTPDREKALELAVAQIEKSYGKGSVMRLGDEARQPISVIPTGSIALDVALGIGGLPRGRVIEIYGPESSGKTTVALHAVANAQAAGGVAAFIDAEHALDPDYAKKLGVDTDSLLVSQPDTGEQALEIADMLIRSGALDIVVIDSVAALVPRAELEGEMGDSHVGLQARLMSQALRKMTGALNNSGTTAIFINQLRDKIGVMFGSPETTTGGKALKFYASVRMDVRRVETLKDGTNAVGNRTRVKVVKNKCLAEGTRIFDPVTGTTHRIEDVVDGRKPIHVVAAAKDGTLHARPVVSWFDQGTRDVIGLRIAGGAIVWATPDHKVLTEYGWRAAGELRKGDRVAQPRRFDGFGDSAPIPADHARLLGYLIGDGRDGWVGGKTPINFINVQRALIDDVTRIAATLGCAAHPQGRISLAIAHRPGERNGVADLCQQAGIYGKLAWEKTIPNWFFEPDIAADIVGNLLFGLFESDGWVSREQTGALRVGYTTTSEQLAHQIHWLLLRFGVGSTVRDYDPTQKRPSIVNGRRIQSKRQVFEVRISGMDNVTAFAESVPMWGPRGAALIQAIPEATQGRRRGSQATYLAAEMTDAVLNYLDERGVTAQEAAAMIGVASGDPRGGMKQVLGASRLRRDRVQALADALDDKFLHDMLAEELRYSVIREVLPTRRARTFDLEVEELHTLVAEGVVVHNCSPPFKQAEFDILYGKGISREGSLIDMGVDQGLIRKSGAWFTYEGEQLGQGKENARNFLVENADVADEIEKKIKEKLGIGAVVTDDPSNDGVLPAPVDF

[8] = alpha-synuclein stem-loop luciferase translation blockers – H4 neuroglioma cells, luminescence, confirmation (AID 1988); type: functional, cell-based
[9] = luciferase reporter signal suppression in cells – H4 neuroglioma cells, luminescence, dose response (AID 1990); type: functional, cell-based
[10] = Luminescence Cell-Based Dose Response HTS to Identify Inhibitors of 5'UTR Stem-Loop Driven Prion Protein mRNA Translation in H4 Neuroglioblastoma Cells. [Related pubchem assays: 1827 (Project Summary), 1813 (Primary HTS)]; type: functional

Chain of Luciferin 4-monooxygenase (P08659 whole entry): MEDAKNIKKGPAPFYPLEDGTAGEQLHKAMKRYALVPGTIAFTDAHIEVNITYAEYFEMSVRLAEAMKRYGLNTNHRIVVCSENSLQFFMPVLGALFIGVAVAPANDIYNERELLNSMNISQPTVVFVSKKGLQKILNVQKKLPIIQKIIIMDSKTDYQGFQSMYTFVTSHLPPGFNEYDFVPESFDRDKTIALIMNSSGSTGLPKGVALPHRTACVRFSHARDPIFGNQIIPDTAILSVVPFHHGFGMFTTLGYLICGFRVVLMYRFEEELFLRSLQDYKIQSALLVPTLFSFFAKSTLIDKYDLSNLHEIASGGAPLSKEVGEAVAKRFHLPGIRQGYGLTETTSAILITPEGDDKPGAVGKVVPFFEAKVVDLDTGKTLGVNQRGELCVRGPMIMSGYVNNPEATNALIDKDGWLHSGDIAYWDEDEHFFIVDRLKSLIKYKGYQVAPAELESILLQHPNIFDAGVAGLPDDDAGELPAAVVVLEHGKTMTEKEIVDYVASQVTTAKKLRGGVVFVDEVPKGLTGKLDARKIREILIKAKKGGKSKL

SMILES	EC50 [1]	EC50 [4]	EC50 [5]	other results
CCc1nn2c(=O)c(S(=O)(=O)Nc3cccc(F)c3)c(C)nc2s1	> 195 µM (not active)	–	–	–
C[C@H]1COC(=O)[C@H](NC(=O)OCC2c3ccccc3-c3ccccc32)C/C=C\C[C@H](CC(=O)N(CCO)Cc2ccccc2)C(=O)N1	–	–	–	AC50 [2]: 6.08 µM (active); AC50 [3]: 5.76 µM (active)
COc1ccc(CCN2CC(C(=O)NCCc3ccc(C(F)(F)F)cc3)CCC2=O)cc1 (stereo not given)	–	> 112 µM (not active)	> 112 µM (not active)	–
O=C(Nc1ccccn1)c1c(O)c2cccc3c2n(c1=O)CCC3	–	> 112 µM (not active)	> 112 µM (not active)	–
CCOc1ccc(C2C(C(=O)NC)=C(C)Nc3nc4ccccc4n32)cc1OC (stereo not given)	–	> 112 µM (not active)	> 112 µM (not active)	–
CC(C)OCCCNCC(O)c1ccccc1 (stereo not given)	–	> 112 µM (not active)	> 112 µM (not active)	–
O=C(CSc1ccccc1)Nc1cccc(NC(=O)c2ccco2)c1	> 195 µM (not active)	–	–	–
COc1cc(OC)c2c(c1)OCC1CON(C)C21 (stereo not given)	> 195 µM (not active)	–	–	–
CC(C)(C)c1ccc(C(=O)NC(=S)N2CCCC2)cc1	> 195 µM (not active)	–	–	–
Cc1ccc(-c2cnn(-c3ccccc3)c2N)cc1	–	1.92 µM (active)	2.57 µM (active)	–
CC1C/C(=N/Nc2nc3ccccc3[nH]2)CC(C)(C)C1 (stereo not given)	> 195 µM (not active)	–	–	–
CCOC(=O)c1cnn(-c2ccccc2)c1-n1cccc1	> 195 µM (not active)	–	–	–
Cc1ccc(OC(=O)c2ccc([N+](=O)[O-])cc2Cl)cn1	–	–	–	AC50 [6]: 11.2 µM (active); EC50 [7]: 4.92 µM (active)
O=[N+]([O-])c1ccc(N2CCCC(C(F)(F)F)C2)c2ccncc12 (stereo not given)	–	–	–	EC50 [8]: > 120 µM (not active); AC50 [6]: > 380 µM (inactive); EC50 [9]: > 120 µM (not active); EC50 [10]: > 120 µM (not active); EC50 [7]: 10.8 µM (active)

Source: ChEMBL document CHEMBL1201862, “PubChem BioAssay data set” (2004)
